# Where a name gives a salt, the structure may show the parent alone. Read-outs that look alike come from different tables or passages of the source.
# What was measured:
# [1] = tested on: Serratia marcescens expressing IMP-1 (CL5741); format: cell-based; settings: with imipenem 1 μg/ml; 95% inhibition of bacterial growth
# Outline: (§1)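 Clinical strains were grown overnight at 35 °C on blood agar, adjusted to set OD600 in saline and diluted 1:100 into 1.1× CAMHB. Inhibitor was tested with and without imipenem at 1 μg/ml. After 22–24 h at 35 °C, absorbance was read to give synergistic concentration.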
# [2] = tested on: Escherichia coli expressing NDM-1 (CLB30005, CLB30016); format: cell-based; settings: with imipenem 1 μg/ml; 95% inhibition of bacterial growth
# Outline: as §1
# [3] = tested on: Klebsiella pneumoniae expressing VIM-1 (IHMA599644); format: cell-based; settings: with imipenem 1 μg/ml; 95% inhibition of bacterial growth
# Outline: as §1
# [4] = tested on: Pseudomonas aeruginosa PAO1 MB9798 (efflux+, IMP-1); settings: imipenem at 2 μg/mL
# Outline: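 Isogenic PAO1 pair (efflux+ MB9798, efflux− MB9799, both IMP-1) tested by microbroth MIC with fixed imipenem and/or ceftazidime, usually at CLSI breakpoint, plus fixed class A/C inhibitor against AmpC. MBL inhibitor titrated; concentration restoring susceptibility recorded and fold difference between strains taken as efflux extent.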
# [5] = ratio MITC95 PA 9798/MITC95 PA 9799
Compound,Serratia marcescens (IMP-1) MITC95 [1],Escherichia coli (NDM-1) MITC95 [2],Klebsiella pneumoniae (VIM-1) MITC95 [3],"Efflux ratio [4, 5]",Efflux ratio ([4]; fold difference between efflux + (MB9798) and efflux − (MB9799) strains)
"NCC(CN)NS(=O)(=O)c1ccc(-c2cccc(-c3c[nH]c(N)n3)c2)c(-c2nn[nH]n2)c1S(N)(=O)=O [Example 435, 3′-(2-amino-1H-imidazol-4-yl)-N4-(1,3-diaminopropan-2-yl)-2-(2H-tetrazol-5-yl)-[1,1′-biphenyl]-3,4-disulfonamide]",3.125 µM,1.563 µM,3.125 µM,–,–
"Nc1nc2c(-c3ccc(S(=O)(=O)N[C@@H]4CNC[C@H]4N)c(S(N)(=O)=O)c3-c3nn[nH]n3)cccc2[nH]1 [Example 424, 4-(2-amino-1H-benzo[d]imidazol-4-yl)-N^1-((3R,4R)-4-aminopyrrolidin-3-yl)-3-(2H-tetrazol-5-yl)benzene-1,2-disulfonamide]",1.563 µM,0.7813 µM,1.563 µM,–,–
"NCCNC(=O)c1cc(-c2ccc(S(=O)(=O)NCCN)c(S(N)(=O)=O)c2-c2nn[nH]n2)ccc1N [Example 451, 4-Amino-N-(2-aminoethyl)-4′-(N-(2-aminoethyl)sulfamoyl)-3′-sulfamoyl-2′-(2H-tetrazol-5-yl)-[1,1′-biphenyl]-3-carboxamide]",0.7813 µM,0.7813 µM,0.7813 µM,–,–
"NCCNC(=O)c1cc(Cl)cc(-c2ccc(S(=O)(=O)NCCN)c(S(N)(=O)=O)c2-c2nn[nH]n2)c1N [Example 447, 2-Amino-N-(2-aminoethyl)-4′-(N-(2-aminoethyl)sulfamoyl)-5-chloro-3′-sulfamoyl-2′-(2H-tetrazol-5-yl)-[1,1′-biphenyl]-3-carboxamide]",0.7813 µM,0.7813 µM,1.563 µM,–,–
"NCCNc1cc(-c2ccc(S(=O)(=O)NCCN)c(S(N)(=O)=O)c2-c2nn[nH]n2)ccn1 [Example 456, N1-(2-Aminoethyl)-4-(2-((2-aminoethyl)amino)pyridin-4-yl)-3-(2H-tetrazol-5-yl)benzene-1,2-disulfonamide]",0.7813 µM,0.7813 µM,1.563 µM,–,–
"NCC(F)(F)c1nc2c(-c3ccc(S(=O)(=O)N[C@H]4CCNC4)c(S(N)(=O)=O)c3-c3nn[nH]n3)cccc2[nH]1 [Example 446, (S)-4-(2-(2-amino-1,1-difluoroethyl)-1H-benzo[d]imidazol-4-yl)-N1-(pyrrolidin-3-yl)-3-(2H-tetrazol-5-yl)benzene-1,2-disulfonamide]",3.125 µM,1.563 µM,3.125 µM,–,–
"NCCNS(=O)(=O)c1ccc(-c2ccc3nccn3c2)c(-c2nn[nH]n2)c1S(N)(=O)=O [Example 401, N^1-(2-aminoethyl)-4-(imidazo[1,2-a]pyridin-6-yl)-3-(2H-tetrazol-5-yl)benzene-1,2-disulfonamide]",–,0.7813 µM,1.563 µM,–,–
"NCCNC(=O)c1cccc(-c2ccc(S(=O)(=O)NCCN)c(S(N)(=O)=O)c2-c2nn[nH]n2)c1 [Example 334, N-(2-aminoethyl)-4′-(N-(2-aminoethyl)sulfamoyl)-3′-sulfamoyl-2′-(2H-tetrazol-5-yl)-[1,1′-biphenyl]-3-carboxamide]",0.7813 µM,–,0.7813 µM,2.00,–
"NC[C@]1(NS(=O)(=O)c2ccc(-c3ccc(N)nc3)c(-c3nn[nH]n3)c2S(N)(=O)=O)CCNC1 [Example 486, (R)-N1-(3-(aminomethyl)pyrrolidin-3-yl)-4-(6-aminopyridin-3-yl)-3-(2H-tetrazol-5-yl)benzene-1,2-disulfonamide dihydrochloride]",–,0.7813 µM,1.563 µM,–,2.00
"Cn1nnc2c(-c3ccc(S(=O)(=O)N[C@H]4CCNC4)c(S(N)(=O)=O)c3-c3nn[nH]n3)cccc21 [Example 293, (S)-4-(1-methyl-1H-benzo[d][1,2,3]triazol-4-yl)-N1-(pyrrolidin-3-yl)-3-(2H-tetrazol-5-yl)benzene-1,2-disulfonamide]",3.125 µM,3.125 µM,3.125 µM,–,–
"NCc1nc2c(-c3ccc(S(=O)(=O)N[C@@H]4CCNC4)c(S(N)(=O)=O)c3-c3nn[nH]n3)cccc2s1 [Example 276, (R)-4-(2-(aminomethyl)benzo[d]thiazol-4-yl)-N1-(pyrrolidin-3-yl)-3-(2H-tetrazol-5-yl)benzene-1,2-disulfonamide]",0.7813 µM,–,0.7813 µM,1.00,–
"NCc1nc2c(-c3ccc(S(=O)(=O)N[C@H](CN)CO)c(S(N)(=O)=O)c3-c3nn[nH]n3)cccc2s1 [Example 363, (R)—N1-(1-amino-3-hydroxypropan-2-yl)-4-(2-(aminomethyl)benzo[d]thiazol-4-yl)-3-(2H-tetrazol-5-yl)benzene-1,2-disulfonamide]",–,3.125 µM,3.125 µM,4.00,–
"NCCNS(=O)(=O)c1ccc(-c2cccc3sc(CN)nc23)c(-c2nn[nH]n2)c1S(N)(=O)=O [Example 345, N^1-(2-aminoethyl)-4-(2-(aminomethyl)benzo[d]thiazol-4-yl)-3-(2H-tetrazol-5-yl)benzene-1,2-disulfonamide]",0.7813 µM,–,0.7813 µM,1.00,–
"NCCNS(=O)(=O)c1ccc(-c2cccc(-c3c[nH]c(N)n3)c2)c(-c2nn[nH]n2)c1S(N)(=O)=O [Example 353, 3′-(2-amino-1H-imidazol-4-yl)-N4-(2-aminoethyl)-2-(2H-tetrazol-5-yl)-[1,1′-biphenyl]-3,4-disulfonamide]",0.7813 µM,–,1.563 µM,2.00,–
"NC[C@@H](CO)NS(=O)(=O)c1ccc(-c2ccnc(N)c2)c(-c2nn[nH]n2)c1S(N)(=O)=O [Example 380, (S)—N1-(1-amino-3-hydroxypropan-2-yl)-4-(2-aminopyridin-4-yl)-3-(2H-tetrazol-5-yl)benzene-1,2-disulfonamide]",0.7813 µM,–,1.563 µM,1.00,–
"N[C@@H]1CNC[C@@H]1NS(=O)(=O)c1ccc(-c2cnc3cc[nH]c3c2)c(-c2nn[nH]n2)c1S(N)(=O)=O [Example 326, N1-((3S,4R)-4-aminopyrrolidin-3-yl)-4-(1H-pyrrolo[3,2-b]pyridin-6-yl)-3-(2H-tetrazol-5-yl)benzene-1,2-disulfonamide]",1.563 µM,–,1.563 µM,1.00,–
"C[C@H](N)c1nc2c(-c3ccc(S(=O)(=O)N[C@@H]4CCNC4)c(S(N)(=O)=O)c3-c3nn[nH]n3)cccc2[nH]1 [Example 272, 4-(2-((S)-1-aminoethyl)-1H-benzo[d]imidazol-4-yl)-N1-((R)-pyrrolidin-3-yl)-3-(2H-tetrazol-5-yl)benzene-1,2-disulfonamide]",1.563 µM,–,1.563 µM,2.00,–
"CC1(NS(=O)(=O)c2ccc(-c3cccc4[nH]c(N)nc34)c(-c3nn[nH]n3)c2S(N)(=O)=O)CNC1 [Example 257, 4-(2-amino-1H-benzo[d]imidazol-4-yl)-N1-(3-methylazetidin-3-yl)-3-(2H-tetrazol-5-yl)benzene-1,2-disulfonamide]",0.7813 µM,–,0.7813 µM,1.00,–
"NC[C@H](N)CNS(=O)(=O)c1ccc(-c2cnc3cc[nH]c3c2)c(-c2nn[nH]n2)c1S(N)(=O)=O [Example 373, (S)-N1-(2,3-diaminopropyl)-4-(1H-pyrrolo[3,2-b]pyridin-6-yl)-3-(2H-tetrazol-5-yl)benzene-1,2-disulfonamide]",1.563 µM,–,3.125 µM,1.00,–
"NC[C@@H](N)CNS(=O)(=O)c1ccc(-c2cccc3[nH]c(N)nc23)c(-c2nn[nH]n2)c1S(N)(=O)=O [Example 375, (R)-4-(2-amino-1H-benzo[d]imidazol-4-yl)-N1-(2,3-diaminopropyl)-3-(2H-tetrazol-5-yl)benzene-1,2-disulfonamide]",1.563 µM,–,1.563 µM,1.00,–
"C[C@H](CN)NS(=O)(=O)c1ccc(-c2ccnc(N)c2)c(-c2nn[nH]n2)c1S(N)(=O)=O [Example 317, (R)—N1-(1-aminopropan-2-yl)-4-(2-aminopyridin-4-yl)-3-(2H-tetrazol-5-yl) benzene-1,2-disulfonamide]",1.563 µM,–,3.125 µM,0.50,–
"Nc1nc2c(-c3ccc(S(=O)(=O)NC[C@H]4CCCN4)c(S(N)(=O)=O)c3-c3nn[nH]n3)cccc2[nH]1 [Example 261, (R)-4-(2-amino-1H-benzo[d]imidazol-4-yl)-N1-(pyrrolidin-2-ylmethyl)-3-(2H-tetrazol-5-yl) benzene-1,2-disulfonamide]",0.7813 µM,–,0.7813 µM,1.00,–

# — patent US10544130B2, “Metallo-beta-lactamase inhibitors” (priority 2015, dated 2020)
